Test: refractive index (other wavelength) (dimensionless); xn = mol fraction of the nth substance listed
Settings: 318.15 K, 101 kPa, Liquid, Standard Abbe refractometry

CC(C)OC(C)C [diisopropyl ether] + CC(C)O
refractive index
Settings	Wavelength=486.1 nm	Wavelength=546.1 nm	Wavelength=587.6 nm	Wavelength=589.3 nm	Wavelength=632.8 nm	Wavelength=644 nm	Wavelength=706.5 nm
x1 = 0.0277	–	1.36758	1.36611	1.36605	1.36479	1.36448	1.36305
x1 = 0.0507	–	1.36752	1.36604	1.36598	1.36472	1.36443	1.363
x1 = 0.051	–	1.36745	1.36598	1.36592	1.36464	1.36435	1.36292
x1 = 0.0717	–	1.36708	1.36563	1.36557	1.36428	1.36398	1.36256
x1 = 0.1528	–	1.36641	1.36495	1.36489	1.36364	1.36335	1.3619
x1 = 0.1553	–	1.36641	1.36495	1.36489	1.36364	1.36335	1.3619
x1 = 0.1938	–	1.36618	1.3647	1.36465	1.36338	1.36309	1.36166
x1 = 0.2029	1.36826	1.36546	1.36403	1.36398	1.36273	1.36243	1.361
x1 = 0.245	1.36775	1.36498	1.36354	1.36348	1.36223	1.36194	1.36053
x1 = 0.297	1.36682	1.36402	1.36259	1.36254	1.36131	1.36101	1.35958
x1 = 0.2973	1.36706	1.36427	1.36283	1.36278	1.36153	1.36123	1.35982
x1 = 0.3068	1.36679	1.36402	1.3626	1.36255	1.36129	1.36098	1.35954
x1 = 0.398	1.36558	1.36283	1.36139	1.36134	1.36008	1.35978	1.35836
x1 = 0.4609	1.36464	1.36184	1.36044	1.36036	1.35912	1.35883	1.3574
x1 = 0.5434	1.36363	1.36086	1.35943	1.35938	1.35814	1.35784	1.35643
x1 = 0.6032	1.36282	1.36011	1.35865	1.3586	1.35735	1.35707	1.35568
x1 = 0.6371	1.36247	1.35971	1.35829	1.35824	1.35701	1.35671	1.35531
x1 = 0.701	1.36166	1.35892	1.35749	1.35743	1.35619	1.35591	1.35452
x1 = 0.754	1.36123	1.35847	1.35706	1.357	1.35577	1.35547	1.35407
x1 = 0.791	1.3608	1.35802	1.35663	1.35658	1.35537	1.35507	1.35364
x1 = 0.8296	1.36034	1.3576	1.35619	1.35614	1.35491	1.35461	1.3532
x1 = 0.8864	1.36022	1.35745	1.35605	1.35599	1.35478	1.35448	1.35309
x1 = 0.8903	1.35967	1.35689	1.35548	1.35543	1.35421	1.35391	1.35251
x1 = 0.9113	1.3594	1.35663	1.35521	1.35515	1.35395	1.35366	1.35225
x1 = 0.9547	1.35891	1.35618	1.35475	1.35469	1.35346	1.35317	1.3518
x1 = 0.973	1.35854	1.3558	1.35439	1.35433	1.35311	1.35281	1.35143
x1 = 0.9771	1.35849	1.35575	1.35433	1.35427	1.35304	1.35276	1.35139
x1 = 1	1.35832	1.35556	1.35416	1.35411	1.3529	1.35259	1.3512

From the NIST ThermoML archive (doi:10.1016/j.fluid.2014.09.014)
